Measurements published in patent publication US20080318954A1, “Compounds” (Cyclacel Limited, priority 2004, published 2008).

Legend:
[1] = test system: glycogen synthase activity in HEK293 cells; assay: Glycogen synthase (GS) assay in HEK293 cells; type: cell-based, human; conditions: HEK293 cells, 40 mM
Procedure: (§1) Cells on 10 cm dishes (Human Embryonic Kidney (HEK) 293 cells, L6 rat myocytes, or 3T3 mouse adipocytes) were treated with different concentrations of GSK3-inhibitors or DMSO vehicle for 90 min. Incubation medium was removed and cells were washed with ice-cold phosphate-buffered saline (PBS) prior to lysis on ice in 50 mM HEPES, pH 7.5, 10 mM EDTA, 100 mM NaF, 5 mM DTT, protease inhibitor cocktail (Sigma). After a freeze/thaw cycle the samples are sonicated for 10 sec and centrifuged at 15,000 g for 10 min at 4° C. Lysate supernatants were snap-frozen on liquid nitrogen and stored at −80° C. Lysates were assayed for glycogen synthase activity in buffer (50 mM Tris-HCl, pH 7.8, 20 mM EDTA, 25 mM NaF, 5 mM DTT, 1% glycogen, 0.3 mM UDP-glucose and 0.06 μCi of [^14C]-UDP-glucose in the presence of 0.1 or 10 mM glucose-6-phosphate. The reaction was carried out for 30 min at 30° C. 70 μL of the reaction mixture (total volume 90 μL) were transferred to a GFC 96-well filter plate (bottom sealed with foil), containing 140 μL 96% ethanol. The GFC plate was incubated for 1 h on ice and than washed with 66% ethanol. To each well 100 μL scintillant liquid was added and the radioactivity of the samples was measured using a scintillation counter (Topcount, HP). Data are expressed as -fold increase in glycogen synthase activity ratios over those of control samples.

[2] = test system: glycogen synthase activity in 3T3 mouse adipocytes; assay: Glycogen synthase (GS) assay in 3T3 mouse adipocytes; type: cell-based; conditions: 3T3 cells, 40 mM
Procedure: Mouse pre-adipocytes 3T3-F442A were seeded at 9×10^5 cells per 10 cm dish in DMEM 10% FCS, containing penicillin/streptomycin. When 90% confluent, the same medium was supplemented with 1 μg/mL insulin. After 3-5 days (when most cells were differentiated) insulin was removed and 4 days later the cells were ready to use.
as §1

[3] = test system: β-catenin-LEF/TCF transcriptional activity in HEK293 cells; assay: β-Catenin-LEF/TCF regulated reporter gene assay; type: cell-based, human; conditions: LiCl
Source text: Furthermore, the effect of compound XIV on the β-catenin-dependent transcriptional activity, as measured in a luciferase based reporter gene assay, was studied.
HEK293 cells were transfected with either β-catenin-LEF/TCF-sensitive or β-catenin-LEF/TCF-insensitive reporter vector (Upstate Biotechnology, Inc.) using Lipofectamine Plus reagent (GibcoBRL) according to the manufacturer's instructions. The next day, cells were trypsinized, washed into serum-free medium, counted and seeded at 40,000 cells per well in a 96-well plate. Subsequent to cell attachment, LiCl or GSK-3 inhibitor compound were added to the medium to the required concentrations. Control cells were DMSO vehicle treated. 16 h after inhibitor addition, cells were analyzed for luciferase activity using the Steady-Glo Luciferase assay system (Promega) according to the manufacturer's instructions.

[Cl-].[Li+] [LiCl, reference compound] was tested, and the “Fold induction of GS activity” value [1] was 3.7 fold, the “Fold induction of GS activity” value [2] was 2 fold and the β-catenin-dependent luciferase activity [3] was “massive induction”.
